These results are taken from patent publication US20150175655A1 (priority 2012, published 2015).

Each structure is given as a SMILES string.

The first test has as its target T1, NS3 genotype 3a protease (UniProt Q81258).
T1 construct: Purified NS3 protease domain (amino acids 1-181) of the genotype 1b and 3a virus were generated as above; fused on or other part: N-terminal hexahistidine tag and rTEV protease cleavage site (vector p28-N6H-Tev-NS3(181)3)
T1 sequence (Q81258 1033-1663): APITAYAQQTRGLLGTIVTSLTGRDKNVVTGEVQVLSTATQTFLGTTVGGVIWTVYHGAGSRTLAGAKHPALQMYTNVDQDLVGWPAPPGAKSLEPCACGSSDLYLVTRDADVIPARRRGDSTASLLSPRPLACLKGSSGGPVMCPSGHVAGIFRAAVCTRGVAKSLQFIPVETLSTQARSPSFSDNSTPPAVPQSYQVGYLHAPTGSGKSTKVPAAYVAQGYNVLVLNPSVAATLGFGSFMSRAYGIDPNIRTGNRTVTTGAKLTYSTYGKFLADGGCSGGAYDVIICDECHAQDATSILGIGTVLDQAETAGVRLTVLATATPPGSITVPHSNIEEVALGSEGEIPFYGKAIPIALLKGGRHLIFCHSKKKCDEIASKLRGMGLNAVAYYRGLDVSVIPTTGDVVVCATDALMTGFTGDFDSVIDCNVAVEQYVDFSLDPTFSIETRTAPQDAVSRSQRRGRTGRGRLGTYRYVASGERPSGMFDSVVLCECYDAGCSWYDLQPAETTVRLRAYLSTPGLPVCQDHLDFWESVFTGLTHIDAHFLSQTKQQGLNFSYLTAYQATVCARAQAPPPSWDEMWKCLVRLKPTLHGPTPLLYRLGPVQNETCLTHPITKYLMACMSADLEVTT
Nature of the test: Ki determination, NS3 protease genotype 3a (fluorogenic depsipeptide substrate). As to conditions: 200 pM enzyme, 20 μM NS4A peptide, 2 μM substrate, read-out: Ki 3A. The test is classed as biochemical, hepatitis C virus. The procedure, abridged:
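Refolded His-tagged NS3 protease domain (aa 1-181, genotype 3a) at 200 pM with 20 μM NS4A peptide was pre-incubated 1 h at RT with inhibitor (100 nM–5 pM, 3-fold), then 2 μM FRET depsipeptide substrate was added in HEPES/40% glycerol/10% DMSO buffer. Steady-state rates over 90-120 min (ex 340/em 490 nm) versus inhibitor concentration gave Ki.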
One may read the Ki as the equilibrium dissociation constant of an inhibitor or competing ligand from its target. Consider `COc1ccc2nc3c(nc2c1)O[C@H]1CN(C(=O)[C@H](C(C)(C)C)NC(=O)O[C@@H]2C[C@H]2CCCCC3)[C@H](C(=O)N[C@]2(C(=O)NS(=O)(=O)C3(C)CC3)C[C@H]2C(F)F)[C@@H]1CC#N` [Example 50, (1aR,5S,8S,9S,10R,22aR)-5-tert-butyl-9-(cyanomethyl)-N-[(1R,2R)-2-(difluoromethyl)-1-{[(1-methylcyclopropyl)sulfonyl]carbamoyl}cyclopropyl]-14-methoxy-3,6-dioxo-1,1a,3,4,5,6,9,10,18,19,20,21,22,22a-tetradecahydro-8H-7,10-methanocyclopropa[18,19][1,10,3,6]dioxadiazacyclononadecino[11,12-b]quinoxaline-8-carboxamide], for which the inhibition constant Ki is > 100 nM. As for `CC[C@@H]1[C@@H]2CN(C(=O)[C@H](C(C)(C)C)NC(=O)O[C@]3(C)CCC[C@H]3CCCCCc3nc4ccc(OC)cc4nc3O2)[C@@H]1C(=O)N[C@]1(C(=O)NS(=O)(=O)C2CC2)C[C@H]1CC` [Example 51], the Ki is 0.84 nM. On the same count and under the same terms, to `CC[C@@H]1[C@@H]2CN(C(=O)[C@H](C(C)(C)C)NC(=O)O[C@]3(C)CCC[C@H]3CCCCCc3nc4ccc(OC)cc4nc3O2)[C@@H]1C(=O)N[C@]1(C(=O)NS(=O)(=O)C2(C)CC2)C[C@H]1CCF` [Example 52, (3aR,7S,10S,11S,12R,24aR)-7-tert-butyl-11-ethyl-N-[(1R,2S)-2-(2-fluoroethyl)-1-{[(1-methylcyclopropyl)sulfonyl]carbamoyl}cyclopropyl]-16-methoxy-3a-methyl-5,8-dioxo-1,2,3,3a,5,6,7,8,11,12,20,21,22,23,24,24a-hexadecahydro-10H-9,12-methanocyclopenta[18,19][1,10,3,6]dioxadiazacyclononadecino[11,12-b]quinoxaline-10-carboxamide] belongs 1.3 nM; to `CC[C@@H]1[C@@H]2CN(C(=O)[C@H](C(C)(C)C)NC(=O)O[C@@H]3C[C@H]3CCCCC(F)(F)c3nc4ccccc4nc3O2)[C@@H]1C(=O)N[C@]1(C(=O)NS(=O)(=O)C2CC2)C[C@H]1C(F)F` [Example 53, (1aR,5S,8S,9S,10R,22aR)-5-tert-butyl-N-[(1R,2R)-1-[(cyclopropylsulfonyl)carbamoyl]-2-(difluoromethyl)cyclopropyl]-9-ethyl-18,18-difluoro-3,6-dioxo-1,1a,3,4,5,6,9,10,18,19,20,21,22,22a-tetradecahydro-8H-7,10-methanocyclopropa[18,19][1,10,3,6]dioxadiazacyclononadecino[11,12-b]quinoxaline-8-carboxamide], 0.09 nM; to `CC[C@@H]1[C@@H]2CN(C(=O)[C@H](C(C)(C)C)NC(=O)O[C@@H]3C[C@H]3CCCCC(F)(F)c3nc4ccccc4nc3O2)[C@@H]1C(=O)N[C@]1(C(=O)NS(=O)(=O)C2CC2)C[C@H]1CC` [Example 54, (1aR,5S,8S,9S,10R,22aR)-5-tert-butyl-N-{(1R,2R)-1-[(cyclopropylsulfonyl)carbamoyl]-2-ethylcyclopropyl}-9-ethyl-18,18-difluoro-3,6-dioxo-1,1a,3,4,5,6,9,10,18,19,20,21,22,22a-tetradecahydro-8H-7,10-methanocyclopropa[18,19][1,10,3,6]dioxadiazacyclononadecino[11,12-b]quinoxaline-8-carboxamide], 0.5 nM. As to `CC[C@@H]1[C@@H]2CN(C(=O)[C@H](C(C)(C)C)NC(=O)O[C@]3(C)CCC[C@H]3CCCCCc3nc4ccc(OC)cc4nc3O2)[C@@H]1C(=O)N[C@]1(C(=O)NS(=O)(=O)C2(C)CC2)C[C@H]1CC` [Example 56, (3aR,7S,10S,11S,12R,24aR)-7-tert-butyl-11-ethyl-N-[(1R,2R)-2-ethyl-1-{[(1-methylcyclopropyl)sulfonyl]carbamoyl}cyclopropyl]-16-methoxy-3a-methyl-5,8-dioxo-1,2,3,3a,5,6,7,8,11,12,20,21,22,23,24,24a-hexadecahydro-10H-9,12-methanocyclopenta[18,19][1,10,3,6]dioxadiazacyclononadecino[11,12-b]quinoxaline-10-carboxamide], the Ki amounted to 1 nM.

`CC[C@@H]1[C@@H]2CN(C(=O)[C@H](C(C)(C)C)NC(=O)O[C@@H]3C[C@@H]4C[C@@H]4[C@H]3CCCCC(F)(F)c3nc4ccc(OC)cc4nc3O2)[C@@H]1C(=O)N[C@]1(C(=O)NS(=O)(=O)C2(C)CC2)C[C@H]1C(F)F` [Example 61, (1aS,2aR,6S,9S,10S,11R,23aR,23bS)-6-tert-butyl-N-[(1R,2R)-2-(difluoromethyl)-1-{[(1-methylcyclopropyl)sulfonyl]carbamoyl}cyclopropyl]-10-ethyl-19,19-difluoro-15-methoxy-4,7-dioxo-1a,2,2a,4,5,6,7,10,11,19,20,21,22,23,23a,23b-hexadecahydro-1H,9H-8,11-methanocyclopropa[4′,5′]cyclopenta[1′,2′:18,19][1,10,3,6]dioxadiazacyclononade cino[11,12-b]quinoxaline-9-carboxamide]: the inhibitory constant (Ki) is 0.09 nM. For the molecule `CC[C@@H]1[C@@H]2CN(C(=O)[C@H](C(C)(C)C)NC(=O)O[C@@]3(C)C[C@@H]3CCCCC(F)(F)c3nc4ccc(OC)cc4nc3O2)[C@@H]1C(=O)N[C@]1(C(=O)NS(=O)(=O)C2(C)CC2)C[C@H]1C(F)F` [Example 64, (1aS,5S,8S,9S,10R,22aS)-5-tert-butyl-N-[(1R,2R)-2-(difluoromethyl)-1-{[(1-methylcyclopropyl)sulfonyl]carbamoyl}cyclopropyl]-9-ethyl-18,18-difluoro-14-methoxy-1a-methyl-3,6-dioxo-1,1a,3,4,5,6,9,10,18,19,20,21,22,22a-tetradecahydro-8H-7,10-methanocyclopropa[18,19][1,10,3,6]dioxadiazacyclononadecino[11,12-b]quinoxaline-8-carboxamide], the Ki worked out at 1.2 nM.

The test is the same for the next values; noted with them: read-out: Ki 3A, 200 pM enzyme, 20 μM NS4A peptide, 2 μM substrate.
As for `COc1ccc2nc3c(nc2c1)O[C@H]1CN(C(=O)[C@H](C(C)(C)C)NC(=O)O[C@@H]2C[C@@H]4C[C@@H]4[C@H]2CCCCC3)[C@H](C(=O)N[C@]2(C(=O)NS(=O)(=O)C3CC3)C[C@H]2CC(F)F)[C@@H]1C` [Example 57, (1aS,2aR,6S,9S,10S,11R,23aR,23bS)-6-tert-butyl-N-[(1R,2S)-1-[(cyclopropylsulfonyl)carbamoyl]-2-(2,2-difluoroethyl)cyclopropyl]-15-methoxy-10-methyl-4,7-dioxo-1a,2,2a,4,5,6,7,10,11,19,20,21,22,23,23a,23b-hexadecahydro-1H,9H-8,11-methanocyclopropa[4′,5′]cyclopenta[1′,2′:18,19][1,10,3,6]dioxadiazacyclononade cino[11,12-b]quinoxaline-9-carboxamide], the Ki worked out at 0.28 nM. Still for that read-out and setting: to `COc1ccc2nc3c(nc2c1)O[C@H]1CN(C(=O)[C@H](C(C)(C)C)NC(=O)O[C@@H]2C[C@@H]4C[C@@H]4[C@H]2CCCCC3)[C@H](C(=O)N[C@]2(C(=O)NS(=O)(=O)C3(C)CC3)C[C@H]2CC(F)F)[C@@H]1C` [Example 58, (1aS,2aR,6S,9S,10S,11R,23aR,23bS)-6-tert-butyl-N-[(1R,2S)-2-(2,2-difluoroethyl)-1-{[(1-methylcyclopropyl)sulfonyl]carbamoyl}cyclopropyl]-15-methoxy-10-methyl-4,7-dioxo-1a,2,2a,4,5,6,7,10,11,19,20,21,22,23,23a,23b-hexadecahydro-1H,9H-8,11-methanocyclopropa[4′,5′]cyclopenta[1′,2′:18,19][1,10,3,6]dioxadiazacyclononade cino[11,12-b]quinoxaline-9-carboxamide] belongs 0.17 nM.
